Source: paper PMC9555310, “Novel inhibitors and activity-based probes targeting serine proteases” (Frontiers in Chemistry, 2022)
“And” between values parts separate entries of the source, which are not always exact repeats. Equal entries are not always repeated.

Experiments:
[1] = target: T1, thrombin (Homo sapiens, UniProt P00734); test: Irreversible inhibition kinetics of thrombin (fluorogenic substrate progress curves); assay type: biochemical; conditions: PBS pH 7.4, 37°C, mean ± SD (n=2)
T1 construct: apparent molecular mass of 31 kDa, corresponding to the heavy (catalytic) chain of the protease; purchased R&D Systems
Method: (§1) A range of inhibitor concentrations were prepared from a 10 mM stock solution of the test compounds (NAP533, NAP559, NAP800, NAP830, NAP849, and NAP962) in N, N-dimethylformamide (DMF). Recombinant protease activities were assayed using the cognate fluorogenic substrates as follows: trypsin (Z-Gly-Gly-Arg-NHMec), thrombin (Boc-Val-Pro-Arg-NHMec), plasmin (Boc-Val-Leu-Lys-NHMec), human neutrophil elastase (MeO-Succinyl-Ala-Ala-Pro-Val-NHMec), and chymotrypsin (Succinyl-Ala-Ala-Pro-Phe-NHMec). Each substrate was used at a final concentration of 50 μM, in the appropriate buffer for each protease. All inhibition assays were performed in microtiter plates maintained at 37°C in a final volume of 100 μL. The reaction was initiated by the addition of each protease (approx. 0.01 μg/well) and the rate of substrate hydrolysis was recorded continuously at 37°C, over a 60 min period, by measuring the rate of increase in fluorescence (at λex 360 nm, λem 480 nm) using a FLUOstar Optima microplate reader (BMG Labtech).
(§2) The resultant inhibition progress curves obtained for each inhibitor were analyzed by the kinetic models developed by [Tian and Tsou (1982)] and [Walker and Elmore (1984)], for irreversible inhibitors, with curve fitting being achieved using GraFit (Erithacus Software), as described previously ([Ferguson et al., 2016]).
Protease inactivation by each of the compounds under study was evaluated using a fluorogenic enzyme assays. Protease-substrate combinations used as detailed in Section 2. Inhibitors were made up as 10 mM stock solutions in either DMF or DMSO, then diluted with PBS (pH 7.4) to give appropriate working concentrations. A final volume of 100 μL was used per well. […] Increase in fluorescence was recorded using a FLUOstar OPTIMA spectrofluorometer (BMG Labtech), excitation 380 nm and emission 460 nm, for 61 cycles (60 seconds/cycle), with results analysed using MARS Data Analysis Software (BMG Labtech). […]

[2] = target: T2, trypsin (Sus scrofa, UniProt P00761); test: Irreversible inhibition kinetics of trypsin (fluorogenic substrate progress curves); assay type: biochemical, porcine
T2 construct: purchased Sigma-Aldrich; host or cells: porcine pancreas
Method: as §1, §2
FIGURE 4 Progress curves for (A), chymotrypsin-catalysed hydrolysis of Succinyl-Ala-Ala-Pro-Phe-NHMec, in the presence of varying concentrations of NAP849. (B), NE-catalysed hydrolysis of MeO-succinyl-Ala-Ala-Pro-Val-NHMec, in the presence of varying concentrations of NAP800. (C) Trypsin-catalysed of Z-Gly-Gly-Arg-NHMec, in the presence of NAP830. (D) Plasmin-catalysed hydrolysis of Boc-Val-Leu-Lys-NHMec, in the presence of varying concentrations of NAP962. Assays were carried out in PBS, pH 7.4, at 37°C, in the presence of a range of inhibitor concentrations (0.25–50 μM) and a fixed concentration (50 μM) of the appropriate substrate for each protease. […]
(§3) Protease inactivation by each of the compounds under study was evaluated using a fluorogenic enzyme assays. […]

[3] = target: T3, chymotrypsin (Bos taurus, UniProt P00766); test: Irreversible inhibition kinetics of chymotrypsin (fluorogenic substrate progress curves); assay type: biochemical, bovine
T3 construct: purchased Sigma-Aldrich (supplement); Calbiochem; host or cells: bovine pancreas
Method: as §1, §2
FIGURE 4 Progress curves for (A), chymotrypsin-catalysed hydrolysis of Succinyl-Ala-Ala-Pro-Phe-NHMec, in the presence of varying concentrations of NAP849. (B), NE-catalysed hydrolysis of MeO-succinyl-Ala-Ala-Pro-Val-NHMec, in the presence of varying concentrations of NAP800. (C) Trypsin-catalysed of Z-Gly-Gly-Arg-NHMec, in the presence of NAP830. (D) Plasmin-catalysed hydrolysis of Boc-Val-Leu-Lys-NHMec, in the presence of varying concentrations of NAP962. Assays were carried out in PBS, pH 7.4, at 37°C, in the presence of a range of inhibitor concentrations (0.25–50 μM) and a fixed concentration (50 μM) of the appropriate substrate for each protease.
The “product progress” curves for substrate hydrolysis in the presence of an inhibitor (Figure 4) are indicative of the action of irreversible inhibitors operating through the kinetic scheme illustrated in Figure 6. In this scheme, the formation of the reversible enzyme–inhibitor complex (EI) is zcharacterized by the inhibitor constant K i. This is converted into the covalent/irreversible complex (E-I) characterized by a first-order rate constant k 3. The overall second-order rate constant for the inactivation of E by I is given by the ratio k 3/K i ([Walker and Elmore, 1984]; [Tsou, 1988]). […]
as §3

T2 sequence (P00761 9-231): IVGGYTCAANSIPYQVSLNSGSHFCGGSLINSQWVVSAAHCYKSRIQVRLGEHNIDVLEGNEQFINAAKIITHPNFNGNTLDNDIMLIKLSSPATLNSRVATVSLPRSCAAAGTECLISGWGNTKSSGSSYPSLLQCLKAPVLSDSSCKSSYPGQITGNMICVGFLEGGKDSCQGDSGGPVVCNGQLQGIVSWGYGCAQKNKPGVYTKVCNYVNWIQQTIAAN

Which results are given for `N=C(N)NCCCN(CC(=O)N1CCC[C@H]1C(=O)N(CC(N)=O)Cc1ccccc1)C(=O)ON1C(=O)CCC1=O` [NAP559, Succinimidoyl-CO-NArg-D-Pro-NPhe-NH2]?
KI (inactivation) ([1]; Boc-Val-Pro-Arg-NHMec 50µM): 5.67 µM; k 3 ([1]; first-order rate constant): 0.6 (± 0.068) min^-1; k 3 / K i ([1]; second-order rate constant): 1.1 (± 0.3) x 10^5 M^-1 min^-1

Which “k 3” value ([2]; first-order rate constant, PBS pH 7.4, 37°C, mean ± SD (n=2)) does the source give for `NCCCCN(CC(=O)NCC(=O)NCC(=O)NCCCOCCOCCOCCCNC(=O)CCCCC1SCC2NC(=O)NC21)C(=O)ON1C(=O)CCC1=O` (stereo not drawn) [NAP830, Succinimidoyl-CO-NLys-Gly-Gly-PEG-Biotin] here?
The value was 0.6 (+ 0.2) min^−1.

What about the “effectiveness as irreversible inhibitor relative to the analogous lysine diphenyl phosphonate QUBTL2” value ([2]; fold greater than QUBTL2) of the same compound?
Its value is “two-fold”.

What about the “k 3 / K i” value ([2]; second-order rate constant of inactivation, PBS pH 7.4, 37°C, mean ± SD (n=2)) of the same compound?
Its value is 45700 M⁻¹ s⁻¹.

How did the Ki ([3]; Succinyl-Ala-Ala-Pro-Phe-NHMec 50 μM, PBS pH 7.4, 37°C, mean ± SD (n=3)) turn out when `O=C(CCCCC1SCC2NC(=O)NC21)NCCCOCCOCCOCCCNC(=O)CNC(=O)CNC(=O)CN(Cc1ccccc1)C(=O)ON1C(=O)CCC1=O` (stereo not drawn) [NAP849, Succinimidoyl-CO-NPhe-Gly-Gly-PEG-Biotin] was run?
Its Ki is 0.89 µM.

And the “k 3” value ([3]; first-order rate constant, PBS pH 7.4, 37°C, mean ± SD (n=3))?
Its value is 0.85 (± 0.29) min^−1.

What about the “second-order rate constant relative to the analogous phenylalanine diphenyl phosphonate QUBCL1” value ([3]; fold greater than QUBCL1) of the same compound?
The value was “approximately ten-fold”.

And the “k 3 / K i” value ([3]; second-order rate constant of inactivation, PBS pH 7.4, 37°C, mean ± SD (n=3))?
The value was 1.28 × 10^6 M^−1 min^−1 and 1.28 (± 0.44) × 10^6 M^−1 min^−1.
